According to paper PMC9248904, “Genomic and Chemical Decryption of the Bacteroidetes Phylum for Its Potential to Biosynthesize Natural Products” (Microbiology Spectrum, 2022):
Values after ≈ are worked out from the molar mass of the structure shown. Like-named read-outs stand apart in the source and are kept apart here. *1 amine or outer side, *2 acyl side, *3 side chain or, on linkers, in order; H or OH if unused. Where a SMILES comes first, the peptide text is derived from it. Bridges are numbered along the chain shown (N, C = ends). [ ]: non-standard residue; d: D form. The star is where a group is joined. Phe(3R-OH) = O=C([C@@H](N[*:1])[C@H](O[*:3])c1ccccc1)[*:2]; Asp(3S-OH) = N[C@H](C(=O)O)[C@H](O)C(=O)O; Ile(3R-OH) = CC[C@@](C)(O)[C@H](N)C(=O)O; d(aIle) = CC[C@H](C)[C@@H](N)C(=O)O; d(aThr) = C[C@@H](O)[C@@H](N)C(=O)O; X1 = CC(C)CCCCCC(N)C(C)C(=O)*; NMeV = CN[C@H](C(=O)O)C(C)C; Dap = NC[C@H](N)C(=O)O

How the values were obtained:
[1] = test system: Aspergillus flavus ATCC 9170; experiment: microbe, parasite or virus in culture; assay type: cell-based
Protocol: (§1) The MIC was determined by broth microdilution method in 96-well plates with 100 µL assay volume per well following EUCAST instructions ([116], [117]) for E. coli ATCC 35218, E. coli ATCC 25922 ΔTolC, E. coli MG1655, Pseudomonas aeruginosa ATCC 27853, P. aeruginosa PAO750, Klebsiella pneumoniae ATCC 13883, Moraxella catarrhalis ATCC 25238, Acinetobacter baumannii ATCC 19606, Bacillus subtilis DSM 10, Staphylococcus aureus ATCC 25923, and Micrococcus luteus DSM 20030. Listeria monocytogenes DSM 20600 (1 day of incubation at 37°C) and Mycobacterium smegmatis ATCC 607 (2 days of incubation at 37°C) were grown in BHI broth supplemented with 1% (vol/vol) Tween 80. Candida albicans FH2173 was grown in MHIIB over 2 days of incubation at 37°C (pre-culture 2 days at 28°C). Approximate inoculation cell density for all strains was 500,000 CFU/mL, except 1,000,000 CFU/mL were used for M. smegmatis and C. albicans. For all fungal screenings 100,000 spores/mL were used and incubated at 37°C for Aspergillus flavus ATCC 9170 (MHIIB) and 25°C for Z. tritici MUCL45407 (4 g/L yeast extract, 4 g/L malt extract, 4 g/L sucrose) and Fusarium oxysporum ATCC 7601 (potato dextrose broth, Sigma). Growth inhibition was detected by optical density (600 nm) or for M. luteus, L. monocytogenes, C. albicans, M. smegmatis, and all fungi by quantification of free ATP using BacTiter-Glo after 24 to 48 h (72 h for Z. tritici). All MIC assays were performed at least in triplicate. FE(III)-citrate was added at molar ratios of 1:1 to samples in DMSO to test compounds in their iron bound conformation.

[2] = test system: Fusarium oxysporum ATCC 7601; experiment: microbe, parasite or virus in culture; assay type: cell-based
Protocol: as §1

Candida albicans FH2173 = experiment: microbe, parasite or virus in culture; assay type: cell-based; details: C. albicans FH2173, at least triplicate; for MIC: MHIIB, 2 days 37°C, BacTiter-Glo, Iron -
Protocol: as §1

Z. tritici MUCL45407 = experiment: microbe, parasite or virus in culture; assay type: cell-based
Protocol: as §1

P. aeruginosa PAO750 = assay type: cell-based, Pseudomonas aeruginosa; details: broth microdilution, 96-well, EUCAST, OD600, Iron -, at least triplicate
Protocol: as §1

[3] = test system: Acinetobacter baumannii ATCC 19606; assay type: cell-based
Protocol: as §1

[4] = test system: Micrococcus luteus DSM 20030; assay type: cell-based
Protocol: as §1

[5] = test system: Pseudomonas aeruginosa ATCC 27853; assay type: cell-based
Protocol: as §1

[6] = test system: Klebsiella pneumoniae ATCC 13883; assay type: cell-based
Protocol: as §1

[7] = test system: Staphylococcus aureus ATCC 25923; assay type: cell-based
Protocol: as §1

[8] = test system: Moraxella catarrhalis ATCC 25238; assay type: cell-based
Protocol: as §1

Bacillus subtilis DSM 10 = assay type: cell-based
Protocol: as §1

E. coli MG1655 = assay type: cell-based, Escherichia coli; details: broth microdilution, 96-well, EUCAST, OD600, Iron -, at least triplicate
Protocol: as §1

E. coli ATCC 25922 ΔTolC = assay type: cell-based, Escherichia coli; details: broth microdilution, 96-well, EUCAST, OD600, Iron -, at least triplicate
Protocol: as §1

E. coli ATCC 35218 = assay type: cell-based, Escherichia coli
Protocol: as §1

[9] = test system: Listeria monocytogenes DSM 20600; assay type: cell-based; details: L. monocytogenes DSM 20600; BHI broth + 1% Tween 80, 1 day 37°C; BacTiter-Glo; Iron -; at least triplicate
Protocol: as §1

[10] = test system: Mycobacterium smegmatis ATCC 607; experiment: microbe, parasite or virus in culture; assay type: cell-based; details: M. smegmatis ATCC 607; BHI broth + 1% Tween 80, 2 days 37°C; BacTiter-Glo; Iron -; at least triplicate
Protocol: as §1

[11] = Fusarium oxysporum, ATCC7601, F. oxysporum ATCC 7601, potato dextrose broth, 25°C, 100,000 spores/mL, BacTiter-Glo, Iron -, at least triplicate, read-out: MIC
[12] = Candida albicans, 48 h, read-out: MIC
[13] = A. baumannii ATCC 19606, broth microdilution, 96-well, EUCAST, OD600, Iron -, at least triplicate
[14] = M. luteus DSM 20030, broth microdilution, 96-well, free ATP (BacTiter-Glo), Iron -, at least triplicate
[15] = P. aeruginosa ATCC 27853, broth microdilution, 96-well, EUCAST, OD600, Iron -, at least triplicate
[16] = S. aureus ATCC 25923, broth microdilution, 96-well, EUCAST, OD600, Iron -, at least triplicate
[17] = M. catarrhalis ATCC 25238, broth microdilution, 96-well, EUCAST, OD600, Iron -, at least triplicate
[18] = B. subtilis DSM 10, broth microdilution, 96-well, EUCAST, OD600, Iron -, at least triplicate
[19] = E. coli ATCC 35218, broth microdilution, 96-well, EUCAST, OD600, chitinopeptins without iron (Iron -), at least triplicate

For `CC(C)(C)C(O)(CCc1ccc(Cl)cc1)Cn1cncn1` (centres unmarked) [Tebuconazole, reference compound], which MIC ([1]; Aspergillus flavus, ATCC9170, A. flavus ATCC 9170, MHIIB, 37°C, 100,000 spores/mL, BacTiter-Glo, Iron -, at least triplicate, read-out: MIC) is on record?
The MIC was 2 µg/mL (≈ 6.5 µM).

What about the MIC [2, 11] of the same compound?
Its MIC is over 64 µg/mL.

What about the MIC (Candida albicans FH2173; [12]) of the same compound?
Its MIC is 2 µg/mL (≈ 6.5 µM).

And the MIC (Z. tritici MUCL45407; Zymoseptoria tritici, Z. tritici MUCL45407, 25°C, 72 h, 100,000 spores/mL, BacTiter-Glo, Iron -, at least triplicate, read-out: MIC)?
Its MIC is 0.5 µg/mL (≈ 1.62 µM).

Which results are given for `C[C@@H]1[C@H](O)[C@@H](C)/C=C/C=C/C=C/C=C/C=C/C=C/C=C/[C@H](O[C@@H]2O[C@H](C)[C@@H](O)[C@H](N)[C@@H]2O)C[C@@H]2O[C@](O)(C[C@@H](O)C[C@@H](O)[C@H](O)CC[C@@H](O)C[C@@H](O)CC(=O)O[C@H]1C)C[C@H](O)[C@H]2C(=O)O` [Amphotericin B, reference compound]?
MIC [2, 11]: 4 µg/mL (≈ 4.33 µM); MIC (Candida albicans FH2173; [12]): 4 µg/mL (≈ 4.33 µM); MIC (Z. tritici MUCL45407; Zymoseptoria tritici, MUCL45407, 72 h): 0.031 µg/mL (≈ 0.0335 µM)

With `CC[C@H](C)[C@H]1NC(=O)[C@H]([C@H](O)c2ccccc2)NC(=O)[C@H]([C@H](O)C(=O)O)NC(=O)[C@@H](C)NC(=O)[C@H](NC(=O)[C@H](C(C)C)N(C)C(=O)C(C)C(N)CCCCCC(C)C)[C@@H](C)OC(=O)[C@H]([C@](C)(O)CC)NC(=O)[C@H]([C@H](O)C(=O)O)NC(=O)[C@H](CC(C)C)NC(=O)[C@H]([C@H](O)C(=O)O)NC(=O)[C@@H](CC(C)C)NC(=O)[C@H](CN)NC(=O)[C@@H](CCCCN)NC(=O)[C@H](CO)NC1=O` (stereo partly drawn) [Chitinopeptin A] (X1-[NMeV][d(aThr)][dA][Asp(3S-OH)][Phe(3R-OH)][d(aIle)]S[dK][Dap][dL][Asp(3S-OH)]L[Asp(3S-OH)][Ile(3R-OH)]; ester 2-C) as the compound, how does the MIC (P. aeruginosa PAO750) read?
The MIC was over 64 µg/mL.

And the MIC ([1]; ATCC 9170)?
Its MIC is over 64 µg/mL.

What about the MIC ([2]; ATCC 7601) of the same compound?
Its MIC is over 64 µg/mL.

And the “MIC, iron bound form” value (Candida albicans FH2173; Iron +: Fe(III)-citrate added at molar ratio 1:1)?
The value was 32 µg/mL.

What about the MIC (Candida albicans FH2173) of the same compound?
Its MIC is 4 µg/mL (≈ 2.21 µM).

And the MIC (Candida albicans FH2173; listed as 1)?
Its MIC is 4 to 8 µg/mL.

What about the MIC (Z. tritici MUCL45407; Z. tritici MUCL45407, 25°C, 72 h, 100,000 spores/mL, BacTiter-Glo, Iron -, at least triplicate) of the same compound?
The MIC was 16 µg/mL (≈ 8.84 µM).

What about the MIC ([3]; ATCC 19606) of the same compound?
Its MIC is 16 µg/mL (≈ 8.84 µM).

And the MIC ([4]; DSM 20030)?
Its MIC is 32 µg/mL (≈ 17.7 µM).

What about the MIC ([5]; ATCC 27853) of the same compound?
The MIC was over 64 µg/mL.

And the MIC ([6]; ATCC 13883)?
The MIC was over 64 µg/mL.

What about the MIC ([7]; ATCC 25923) of the same compound?
Its MIC is over 64 µg/mL.

And the MIC ([8]; ATCC 25238)?
Its MIC is 2 µg/mL (≈ 1.11 µM).

And the “MIC, iron bound form” value ([8]; ATCC 25238)?
Its value is 4 µg/mL (≈ 2.21 µM).

What about the MIC (Bacillus subtilis DSM 10; DSM 10) of the same compound?
The MIC was 4 µg/mL (≈ 2.21 µM).

And the “MIC, iron bound form” value (Bacillus subtilis DSM 10; DSM 10)?
Its value is 8 µg/mL (≈ 4.42 µM).

And the MIC (E. coli MG1655)?
Its MIC is over 256 µg/mL.

What about the MIC (E. coli ATCC 25922 ΔTolC) of the same compound?
The MIC was over 64 µg/mL.

And the MIC (E. coli ATCC 35218; ATCC 35218)?
Its MIC is over 64 µg/mL.

Gentamycin [reference compound] was tested. Which MIC (P. aeruginosa PAO750) did it give?
The MIC was 0.125 µg/mL.

What about the MIC [3, 13] of the same compound?
The MIC was 16 µg/mL.

And the MIC [4, 14]?
The MIC was at most 0.031 µg/mL.

And the MIC [5, 15]?
Its MIC is 1 µg/mL.

What about the MIC ([6]; K. pneumoniae ATCC 13883, broth microdilution, 96-well, EUCAST, OD600, Iron -, at least triplicate) of the same compound?
Its MIC is at most 0.031 µg/mL.

What about the MIC [7, 16] of the same compound?
The MIC was 0.063 µg/mL.

And the MIC [9]?
Its MIC is at most 0.031 µg/mL.

What about the MIC [8, 17] of the same compound?
The MIC was 0.125 µg/mL.

And the MIC (Bacillus subtilis DSM 10; [18])?
The MIC was at most 0.031 µg/mL.

What about the MIC (E. coli MG1655) of the same compound?
The MIC was 0.5 µg/mL.

What about the MIC (E. coli ATCC 25922 ΔTolC) of the same compound?
Its MIC is 0.25 µg/mL.

What about the MIC (E. coli ATCC 35218; [19]) of the same compound?
The MIC was 0.125 µg/mL.

Which results are given for Chitinopeptin D1+D2?
MIC [10]: > 64 µg/mL; MIC ([1]; A. flavus ATCC 9170, MHIIB, 37°C, 100,000 spores/mL, BacTiter-Glo, Iron -, at least triplicate): 64 µg/mL; MIC ([2]; F. oxysporum ATCC 7601, potato dextrose broth, 25°C, 100,000 spores/mL, BacTiter-Glo, Iron -, at least triplicate): > 64 µg/mL; MIC (Candida albicans FH2173): 16 µg/mL; MIC [3, 13]: 16 µg/mL; MIC [4, 14]: 32 µg/mL; MIC [5, 15]: > 64 µg/mL; MIC [7, 16]: > 64 µg/mL; MIC [8, 17]: 2 µg/mL; MIC (Bacillus subtilis DSM 10; [18]): 4 µg/mL; MIC (E. coli ATCC 25922 ΔTolC): > 64 µg/mL; MIC (E. coli ATCC 35218; [19]): > 64 µg/mL
